Laboratory results as given in PubChem BioAssay AID743071 (Broad Institute, 2013).
Active and inactive are the calls of the source. The rule behind the calls is not given here.

Test system: M. tuberculosis wild type plus biotin, growth inhibition
Experiment: mtb wild type strain growth inhibition with biotin, cell based, bioa project (AID 743071)
Settings: for IC90: measured here: Mtb growth IC90

CCc1ccc(N2CCN(C(=O)c3ccc4c(c3)OCO4)CC2)cc1
IC50: 8.7 µM | IC90: > 50 µM

CCc1ccc(C(=O)N2CCN(Cc3ccc4c(c3)OCO4)CC2)cc1
IC50: 8.8 µM | IC90: > 50 µM

CC(=O)c1ccc(N2CCN(C(=O)c3ccc4c(c3)OCO4)CC2)cc1
IC50: > 50 µM (inactive) | IC90: > 50 µM

CC(=O)c1ccc(N2CCN(C(=O)c3cccc(F)c3)CC2)cc1
IC50: > 50 µM (inactive) | IC90: > 50 µM

CC(=O)c1ccc(N2CCN(C(=O)c3cccc(Cl)c3)CC2)cc1
IC50: > 50 µM (inactive) | IC90: > 50 µM

O=C(c1ccc2c(c1)OCO2)N1CCN(Cc2ccccc2)CC1
IC50: > 50 µM (inactive) | IC90: > 50 µM

Cc1nc2cc(NC(=O)N3CCN(c4ccccc4)CC3)ccc2o1
IC50: 50 µM | IC90: > 50 µM

CC(=O)c1ccc(N2CCN(C(=O)c3ccccc3)CC2)cc1
IC50: > 50 µM (inactive) | IC90: > 50 µM

O=C(Nc1ccc2snnc2c1)N1CCCCC1
IC50: 50 µM | IC90: > 50 µM

Cc1cc(C)n2nc(C(=O)Nc3cccnc3)nc2n1
IC50: > 50 µM (inactive) | IC90: > 50 µM

COc1ccc(NC(=O)N2CCN(c3ccccc3)CC2)cc1
IC50: > 50 µM (inactive) | IC90: > 50 µM

Cc1nc2ccc(NC(=O)N3CCN(c4ccccc4)CC3)cc2s1
IC50: 1.9 µM | IC90: 7.3 µM

O=C(c1ccc2c(c1)OCO2)N1CCN(c2ccc(F)cc2)CC1
IC50: 18.9 µM | IC90: > 50 µM

CC(=O)c1ccc(N2CCN(C(=O)c3cccnc3)CC2)cc1
IC50: > 50 µM (inactive) | IC90: > 50 µM

O=C(Nc1ccc2snnc2c1)N1CCN(c2ccccc2)CC1
IC50: > 50 µM (inactive) | IC90: > 50 µM

CC(=O)c1ccc(N2CCN(C(=O)c3ccc(Cl)cc3)CC2)cc1
IC50: > 50 µM (inactive) | IC90: > 50 µM

O=C(O)CC/C(=C\c1ccccc1[N+](=O)[O-])c1nc2ccccc2s1
IC50: > 50 µM (inactive) | IC90: > 50 µM

CC(=O)c1ccc(N2CCN(C(=O)c3ccc(C)cc3)CC2)cc1
IC50: > 50 µM (inactive) | IC90: > 50 µM

O=C(Nc1ccc(Cl)cc1)c1cc2nc(C3CC3)cc(C(F)(F)F)n2n1
IC50: > 50 µM (inactive) | IC90: > 50 µM

Cc1ccc(/C=C(\CCCC(=O)O)c2nc3ccccc3s2)cc1[N+](=O)[O-]
IC50: 9.6 µM | IC90: > 50 µM

COc1ccc(C(=O)N2CCN(c3ccc(C(C)=O)cc3)CC2)cc1
IC50: 81.4 µM (inactive) | IC90: > 50 µM

CC(=O)c1ccc(N2CCN(C(=O)c3ccc(F)cc3)CC2)cc1
IC50: > 50 µM (inactive) | IC90: > 50 µM

O=C(Nc1cccc(Cl)c1)N1CCN(c2ccccc2)CC1
IC50: 5.5 µM | IC90: > 50 µM

CCOC(=O)N1CCN(C(=O)Nc2ccc3snnc3c2)CC1
IC50: 50 µM | IC90: > 50 µM

CC(C)(C)c1ccc(C(=O)N2CCN(c3ccc4c(c3)OCO4)CC2)cc1
IC50: 15 µM | IC90: > 50 µM

O=C(Nc1cccc(F)c1)N1CCN(c2ccccc2)CC1
IC50: 7.9 µM | IC90: > 50 µM

CC(=O)c1ccc(N2CCN(C(=O)c3ccc(Br)cc3)CC2)c(F)c1
IC50: > 50 µM (inactive) | IC90: > 50 µM

Cc1ccc(/C=C(\CCC(=O)O)c2nc3ccccc3s2)cc1
IC50: 2.2 µM | IC90: 5.6 µM

Cc1ccc(NC(=O)N2CCN(c3ccccc3)CC2)cc1
IC50: 8 µM | IC90: > 50 µM

Cc1ccc(/C=C(\CC(=O)O)c2nc3ccccc3s2)cc1[N+](=O)[O-]
IC50: 7.2 µM | IC90: > 50 µM

O=C(Nc1cccnc1)c1cc2nc(-c3cccs3)cc(C(F)(F)F)n2n1
IC50: > 50 µM (inactive) | IC90: > 50 µM

O=C(Nc1cccnc1)c1cnn2c(C(F)(F)F)cc(-c3ccccc3)nc12
IC50: > 50 µM (inactive) | IC90: > 50 µM

O=C(Nc1ccc2[nH]ccc2c1)N1CCN(c2ccccc2)CC1
IC50: 8.5 µM | IC90: > 50 µM

O=C(Nc1cccnc1)c1cnn2c(C(F)F)cc(C3CC3)nc12
IC50: > 50 µM (inactive) | IC90: > 50 µM

COc1cc(/C=C/C(=O)Nc2cccnc2)cc(OC)c1OC
IC50: > 50 µM (inactive) | IC90: > 50 µM

COc1cccc(C(=O)N2CCN(c3ccc(C(C)=O)cc3)CC2)c1
IC50: > 50 µM (inactive) | IC90: > 50 µM

COc1ccc(-c2cc(C(F)(F)F)n3nc(C(=O)Nc4cccnc4)cc3n2)cc1
IC50: > 50 µM (inactive) | IC90: > 50 µM

Cc1ccc(/C=C(\CCC(=O)O)c2nc3ccccc3s2)cc1[N+](=O)[O-]
IC50: 2 µM | IC90: 8.7 µM

O=C(COc1ccc2ccc(=O)oc2c1)N1CCN(c2ccc(F)cc2)CC1
IC50: > 50 µM (inactive) | IC90: > 50 µM

O=C(Nc1ccc(F)cc1)N1CCN(c2ccccc2)CC1
IC50: 19.8 µM | IC90: > 50 µM

O=C(Nc1cccnc1)N1CCN(c2ccccc2)CC1
IC50: > 50 µM (inactive) | IC90: > 50 µM

CC(=O)c1ccc(N2CCN(Cc3ccc4c(c3)OCO4)CC2)cc1
IC50: 50 µM | IC90: > 50 µM

O=C(Nc1ccncc1)c1cc2nc(C3CC3)cc(C(F)F)n2n1
IC50: > 50 µM (inactive) | IC90: > 50 µM

O=C(c1ccc2c(c1)OCO2)N1CCN(c2ccccc2)CC1
IC50: 22.8 µM | IC90: > 50 µM

COc1cccc(NC(=O)N2CCN(c3ccccc3)CC2)c1
IC50: 50 µM | IC90: > 50 µM

CC(=O)c1ccc(N2CCN(C(=O)c3ccc4ncsc4c3)CC2)cc1
IC50: > 50 µM (inactive) | IC90: > 50 µM

O=C(Nc1ccc2snnc2c1)N1CCOCC1
IC50: > 50 µM (inactive) | IC90: > 50 µM

Cc1ccc(-c2cc(C(F)(F)F)n3nc(C(=O)Nc4cccnc4)cc3n2)cc1
IC50: > 50 µM (inactive) | IC90: > 50 µM

Cc1cccc(/C=C(\CCC(=O)O)c2nc3ccccc3s2)c1
IC50: 3.1 µM | IC90: 11.6 µM

CCN(CC)c1ccc2cc(C(=O)c3cccs3)c(=O)oc2c1
IC50: 5.5 µM | IC90: > 50 µM

O=C(c1ccc2c(c1)OCO2)N1CCN(c2ccc(Cl)cc2)CC1
IC50: 12.7 µM | IC90: 42.7 µM

Cc1cc(C)n2nc(C(=O)Nc3cccnc3)cc2n1
IC50: > 50 µM (inactive) | IC90: > 50 µM

O=C(Nc1ccc(Cl)c(-c2nc3ccccc3[nH]2)c1)c1cccnc1
IC50: 6.5 µM | IC90: > 50 µM

O=C(O)CC/C(=C\c1ccc([N+](=O)[O-])cc1)c1nc2ccccc2s1
IC50: 8.2 µM | IC90: > 50 µM

O=C(Nc1ccccc1)N1CCN(c2ccccc2)CC1
IC50: 11.7 µM | IC90: > 50 µM

CC(=O)c1ccc(N2CCN(C(=O)c3ccc4c(c3)OCCO4)CC2)cc1
IC50: > 50 µM (inactive) | IC90: > 50 µM

Cc1ccccc1/C=C(\CCC(=O)O)c1nc2ccccc2s1
IC50: 8.4 µM | IC90: 40.4 µM

COc1ccc(N2CCN(C(=O)c3ccc4c(c3)OCO4)CC2)cc1
IC50: 10.1 µM | IC90: > 50 µM

COc1cccc(NC(=O)CCC2CCN(C(=O)c3ccc(C(C)=O)s3)CC2)c1
IC50: > 50 µM (inactive) | IC90: > 50 µM

COC(=O)c1c(C(=O)OC)c(-c2cccc(F)c2)n2c1CS(=O)C2 (stereo not given)
IC50: > 50 µM (inactive) | IC90: > 50 µM
